How the values were obtained:
[1] = design: method as in PMID 24295085; details: human lung and pulmonary microsomes; cited from earlier work
[2] = Solubility of indacaterol in solvents (porogen and washing solvent choice); format: physicochemical
[3] = Pharmacokinetic study of indacaterol in rat lung tissues (MISPE, UPLC); format: in vivo, male Wistar rats; details: rat lungs
Method: AUC was calculated using the trapezoidal rule where, AUC 0−t was determined by summing the areas of consecutive trapezoids formed by plotting drug concentration versus time[36]. The elimination rate constant was estimated from the least-squares regression slope of the terminal lung concentrations by multiplying the negative slope by 2.303[36]. The AUC 0−inf was calculated using Eq. (9)[36]:9 [drawing 9]
where, Ct is the last lung concentration measured. The t1/2 was calculated using Eq. (10)[36]:10 [drawing 10]
The rats were divided into eight sampling time points (n = 3/sampling time point) representing different time intervals (0.0, 5.0, 15.0, 30.0, 60.0, 180.0, 360.0 and 1440.0 min) for the pharmacokinetic study. Except for the zero-time sampling point; where rats were not administered the drug and were used for bioanalytical validation; each rat in each sampling time point was administered one inhalation capsule containing 150 µg of indacaterol using a powder administration device for animals (Aptar Pharma, Le Prieure, Le Neubourg, France). The powder administration device was designed to deliver a uniform dose of dry powder inhalers into the lungs of rats.
At each time interval, three rats were subjected to euthanasia in the euthanasia chamber using carbon dioxide gas inhalation, after being unconscious, the rats were subjected to decapitation and their lungs were separated and cut into small slices to facilitate homogenization. Then, the lung tissues were homogenized for 10 min using a homogenizer placed in an ice jacket with 2.0 mL of PBS. The homogenized samples were then centrifuged, and the supernatant was separated and loaded into MISPE cartridge following the optimized MISPE steps. The drug was eluted in 1.0 mL of the eluent. Then, 10.0 µL of salbutamol stock solution was added to the eluent as an IS, and the eluent was then injected into UPLC. The same procedure was repeated at each time interval. Dead animal bodies were kept in biohazard bags in -20^ºC freezer and finally incinerated by specialized waste disposal companies.

[4] = design: method as in PMID 19819331; details: cited from earlier work
[5] = Stability of lung samples spiked with indacaterol standard; format: physicochemical, rat; details: for Short-term stability, % deviation from fresh sample: room temperature 2 h, lung sample; for Long-term stability, % deviation from fresh sample: -80 °C 3 weeks; for Auto-sampler stability, % deviation from fresh sample: autosampler 30°C 6 h; for Freeze and thaw stability, % deviation from fresh sample: three cycles each of 24 h
Method: Regarding the preparation of lung tissue samples, three non-medicated male rats were sacrificed by decapitation and their whole lungs were harvested. The lungs were cut into small slices and mixed with 2.0 mL of PBS, homogenized in an ice jacket for 10.0 min. Subsequently, 1800.0 µL of the homogenate was collected and spiked with 200.0 µL of indacaterol solution with concentrations of 1.0, 3.0, 350.0, and 700.0 µg mL^− 1 separately, to achieve the concentration of the LLOQ and QCs per 1.0 mL of the lung homogenate. Samples were centrifuged at 3000 rpm for 10 min and 1.0 mL of the supernatant was passed through the MISPE cartridge according to the extraction protocol outlined in section "Preparation and optimization of MISPE". Finally, 10.0 µL of salbutamol stock standard solution was added to the eluent as IS, and the samples were injected into the UPLC for analysis.
Samples stabilities were assessed by injecting LLOQ and QCs six times and compared to freshly prepared samples using the following stability conditions:
Samples were left at room temperature for a time exceeding that required for sample preparation (2 h).
Samples were left in autosampler (30°C) for 6 h; expected time of samples storage in autosampler before injection. Then, samples were injected.
Samples were subjected to three cycles of freeze and thaw each of 24 h and the samples were kept under the same conditions as during the analysis.
Samples were stored at -80^ºC over a period exceeding that required for the whole experiment (3 weeks).
The results of all stability conditions were evaluated using Eq. (2). The deviation should not exceed ± 15.0%.2 [drawing 2]

[6] = cited from earlier work
[7] = male, Wistar, lung, inhaled or intranasal, 150 ug, single inhaled capsule 150 µg, mean ± SD

In the case of `CCc1cc2c(cc1CC)CC(NC[C@H](O)c1ccc(O)c3[nH]c(=O)ccc13)C2` [indacaterol, 5-[(1R)-2-(5,6-diethyl-indan-2-ylamino)-1-hydroxy-ethyl]−8-hydroxy-1H-quinolin-2-one], the “metabolism by UGT1A1 and CYP3A4 in the lung” value [1] is listed as “did not detect any apparent metabolism”, the “solubility in acetonitrile and chloroform” value ([2]; tested as porogen) is listed as “insolubility” and the solubility in methanol ([2]; washing solvent discussion) is listed as “high”. For the same compound, the Cmax ([3]; male, Wistar, lung, inhaled or intranasal, 150 ug, single inhaled Onbrez Breezhaler capsule 150 µg indacaterol, n = 3 per sampling time point, mean ± SD) was 51 ± 2.81 µg/mL, the AUC(0-inf) [3, 7] was 542 ± 5.25 µg·h/mL and the Tmax [3, 7] was 4.98 ± 0.06 min. For the same compound, the half-life ([3]; male, Wistar, lung, inhaled or intranasal, 150 ug, single inhaled capsule 150 µg, mean ± SD, read-out: t1/2 (0–24) (converted)) was 48.51 ± 0.012 h, the AUC(0-t) ([3]; male, Wistar, lung, inhaled or intranasal, 150 ug, zero to 24 h, single inhaled capsule 150 µg, mean ± SD) was 175.9 ± 1.05 µg·h/mL and the “onset of lung deposition” value ([3]; single inhaled capsule 150 µg) was 5 min. The Elimination rate constant ([3]; single inhaled capsule 150 µg, mean ± SD) was 0.014 ± 0.00012 h^− 1, the lipophilicity [4] was “high” and the “binding affinity for raft micro-domains compared to other β2 agonists” value ([4]; plasma membrane of airway smooth muscle) was “two-fold higher”. The “Short-term stability, % deviation from fresh sample” value (“Short-term stability, % deviation” below) ([5]; LLOQ 0.10 µg mL^-1) was -11.30±3.50%, the “Long-term stability, % deviation from fresh sample” value (from here on “Long-term stability, % deviation”) ([5]; LLOQ) was -13.10±5.89% and the “Auto-sampler stability, % deviation from fresh sample” value (from here on “Auto-sampler stability, % deviation”) ([5]; LLOQ) was -12.05±4.20%. For the same compound, the “Freeze and thaw stability, % deviation from fresh sample” value (“Freeze and thaw stability, % deviation” for short) ([5]; LLOQ) was -13.26±4.85%, the “Short-term stability, % deviation” value ([5]; QCH 70.0 µg mL^-1) was -2.89±1.94% and the “Long-term stability, % deviation” value ([5]; QCH) was -3.28±1.32%. For the same compound, the “Auto-sampler stability, % deviation” value ([5]; QCH) was -1.71±2.67%, the “Freeze and thaw stability, % deviation” value ([5]; QCH) was -2.20±2.25% and the “Short-term stability, % deviation” value ([5]; QCL 0.30 µg mL^-1) was -5.74±2.25%. For the same compound, the “Long-term stability, % deviation” value ([5]; QCL) was -4.40±3.88%, the “Auto-sampler stability, % deviation” value ([5]; QCL) was -5.98±2.58% and the “Freeze and thaw stability, % deviation” value ([5]; QCL) was -4.80±3.26%. The “Short-term stability, % deviation” value ([5]; QCM 35.0 µg mL^-1) was -4.14±2.61%, the “Long-term stability, % deviation” value ([5]; QCM) was -3.90±2.22% and the “Auto-sampler stability, % deviation” value ([5]; QCM) was -4.02±2.34%. For the same compound, the “Freeze and thaw stability, % deviation” value ([5]; QCM) was -4.30±2.81%, the “time to enter the bloodstream after inhalation” value ([6]; after being inhaled) was ≤ 5 min and the “time to highest blood concentration” value ([6]; after entering the bloodstream, at very low doses) was “approximately 15 min”. The absolute bioavailability ([6]; inhaled) was 45%, the “fraction of systemically available indacaterol due to pulmonary absorption (Flung)” value ([6]; inhaled) was 74% and the “time to steady state” value ([6]; once-daily inhalation) was 12 days.

From PMC11452728, “Pharmacokinetics of pulmonary indacaterol in rat lung using molecular imprinting solid-phase extraction coupled with RP-UPLC” (Scientific Reports, 2024)
